These are literature values, as cited in patent publication US20060045850A1, “Nasal delivery of cyclodextrin complexes of anti-inflammatory steroids” (QPharma, LLC, priority 2004, published 2006).

`CCC(=O)O[C@]1(C(=O)SCF)[C@H](C)C[C@H]2[C@@H]3C[C@H](F)C4=CC(=O)C=C[C@]4(C)[C@@]3(F)[C@@H](O)C[C@@]21C` [Fluticasone]: the “absorption when administered orally” value (administered orally) is listed as “no absorption”. Besides, the absolute bio-availability result (from the suspension formulation, administered nasally) was “less than 2.0%”.
